The values below come from patent US11939351B2, “Amorphous mixture comprising a neutral mono- or oligosaccharide and an acidic non-carbohydrate component” (GLYCOM A/S, priority 2017, dated 2024).

Data set [1] in a line: Forced storage stability of 2′-FL and DFL mixture samples at 60° C. and 80° C., analysed by HPAEC (Example 2). The class given is physicochemical. The method, then: One gram of each sample, separately, was put into a 4 ml glass vial and closed with screw lid containing teflon […]. The 8-week storage sample was put into a 60° C. oven, followed by the 4-week and the 2-week samples 4 and 6 weeks later, respectively), so the incubation of all samples ended in the same time. Similar pattern of experimental design was followed with the samples to be measured at 80° C. (4-week, 2-week and 1-week samples). The samples were kept in a freezer until they were put into the oven at a given time. Standards were kept in a freezer until analysis. The stability samples and the standards were analysed by HPAEC.

Data set [2] is classed as physicochemical. The text has this: This means that an amorphous 2′-FL according to the present invention, the pH of the 5 w/w % aqueous solution of which is around 3.5-4.5, has a slightly shorter shelf-life than that for an amorphous 2′-FL having a pH of 4.5-5.8. […] In this regard it can be concluded that a fucosylated neutral HMO other than 2′-FL is hydrolytically as stable as a non-fucosylated neutral HMO.

The mark [3] stands for this setting: in the acidic samples (pH = 4.5).
Setting [4] is: in the neutral sample (pH = 7.0).

Molecules are shown by their SMILES. Read-outs that look alike come from different tables or passages of the source.

Consider `C[C@@H]1O[C@@H](O[C@H]2[C@H](O[C@H]3[C@H](O[C@@H]4O[C@@H](C)[C@@H](O)[C@@H](O)[C@@H]4O)[C@@H](O)C(O)O[C@@H]3CO)O[C@H](CO)[C@H](O)[C@@H]2O)[C@@H](O)[C@H](O)[C@@H]1O` (some centres unmarked) [DFL, difucosyllactose], for which the “hydrolysis (into fucose and lactose)” value in data set [1] (setting [3]) and in data set [1] (setting [4]) was “did not undergo hydrolysis” throughout. The hydrolytic stability entry in data set [2] is listed as “hydrolytically stabile”.

Turning to `C[C@@H]1O[C@@H](O[C@H]2[C@H](O[C@H]3[C@H](O)[C@@H](O)C(O)O[C@@H]3CO)O[C@H](CO)[C@H](O)[C@@H]2O)[C@@H](O)[C@H](O)[C@@H]1O` (some centres unmarked) [2′-FL, 2′-fucosyllactose], in data set [1] (estimated from the Example 2 data), the “preferred pH range in which no substantial hydrolysis and rearrangement occur” value is listed as 5.2-5.8. Also, the “hydrolysis (into fucose and lactose)” value in data set [1] (setting [3]) was “slight hydrolysis”; in data set [1] (setting [4]), “did not occur”. The “hydrolysis to fucose and lactose” value in data set [2] (at a pH around 4.0-4.5) is “still detectable”; in data set [2] (at around a pH of 3.5) it was “low degree of hydrolysis”.
